# In US9995734B2, “Human T cell line assay for evaluating the immunologic identity of glatiramer acetate preparations” (Mylan Inc., priority 2013, dated 2018):
# Tested on: Donor 3 GMA T-Cell Lines
# Assay: ATP proliferation assay (CellTiter Glo), Donor 3 GMA T-cell lines, incl. reactivity to non-canonical GA peptides
# Format: cell-based, human
# Conditions: for ATP proliferation assay: Day 14
substance,measurement,setting,value
glatiramer acetate [GMA],ratio of proliferation in response to GMA:control (APC only),,greater than 3.0
same,ATP proliferation assay,"165-B2G, 10 μg/mL, control 9692",28770 RLU
same,response in proliferation assay,"165-B5G, 165-D8G, 165-E7G, 165-F5G, Day 56, 0, 1, 5, 10, 100 μg/mL, GMA and COP responses comparable",responded well
same,ATP proliferation assay,"165-B5G, 10 μg/mL, control 15423",63023 RLU
same,ATP proliferation assay,"165-B11G, 10 μg/mL, control 18412",56588 RLU
same,ATP proliferation assay,"165-C4G, 10 μg/mL, control 14869",62306 RLU
same,ATP proliferation assay,"165-C5G, 10 μg/mL, control 14240",76296 RLU
same,ATP proliferation assay,"165-C8G, 10 μg/mL, control 18205",79281 RLU
same,ATP proliferation assay,"165-D8G, 10 μg/mL, control 30331",136938 RLU
same,ATP proliferation assay,"165-E7G, 10 μg/mL, control 18215",66364 RLU
same,ATP proliferation assay,"165-E9G, 10 μg/mL, control 17059",52948 RLU
same,ATP proliferation assay,"165-F2G, 10 μg/mL, control 14734",44951 RLU
same,ATP proliferation assay,"165-F5G, 10 μg/mL, control 16943",100677 RLU
same,ATP proliferation assay,"165-F8G, 10 μg/mL, control 17986",72716 RLU
same,ATP proliferation assay,"165-F10G, 10 μg/mL, control 13314",42447 RLU
same,ATP proliferation assay,"165-H11G, 10 μg/mL, control 17149",52850 RLU
same,"Proliferation (luminescent ATP assay), Mean","T-cell line 165-05G, 1 μg/mL antigen, Day 50 of culturing, No Antigen Value 2149",3999 RLU
same,"Proliferation (luminescent ATP assay), Mean","T-cell line 165-05G, 3 μg/mL antigen, Day 50 of culturing, No Antigen Value 2149",35643 RLU
same,"Proliferation (luminescent ATP assay), Mean","T-cell line 165-05G, 10 μg/mL antigen, Day 50 of culturing, No Antigen Value 2149",53130 RLU
same,"Proliferation (luminescent ATP assay), Mean","T-cell line 165-05G, 30 μg/mL antigen, Day 50 of culturing, No Antigen Value 2149",55596 RLU
same,"Mean, ATP proliferation assay","T-cell line 165-B2G, 1 μg/mL, Day 40",4034
same,"Mean, ATP proliferation assay","T-cell line 165-B2G, 3 μg/mL, Day 40",20994
same,"Mean, ATP proliferation assay","T-cell line 165-B2G, 10 μg/mL, Day 40",38244
same,"Mean, ATP proliferation assay","T-cell line 165-B5G, 1 μg/mL, Day 40",3866
same,"Proliferation (luminescent ATP assay), Mean","T-cell line 165-B5G, 1.25 μg/mL antigen, Day 55 of culturing, No Antigen Value 846",1406 RLU
same,"Proliferation (luminescent ATP assay), Mean","T-cell line 165-B5G, 2.5 μg/mL antigen, Day 55 of culturing, No Antigen Value 846",2537 RLU
same,"Mean, ATP proliferation assay","T-cell line 165-B5G, 3 μg/mL, Day 40",6591
same,"Proliferation (luminescent ATP assay), Mean","T-cell line 165-B5G, 5 μg/mL antigen, Day 55 of culturing, No Antigen Value 846",5205 RLU
same,"Proliferation (luminescent ATP assay), Mean","T-cell line 165-B5G, 10 μg/mL antigen, Day 55 of culturing, No Antigen Value 846",11364 RLU
same,"Mean, ATP proliferation assay","T-cell line 165-B5G, 10 μg/mL, Day 40",12367
same,"Mean, ATP proliferation assay","T-cell line 165-C4G, 1 μg/mL, Day 40",3434
same,"Mean, ATP proliferation assay","T-cell line 165-C4G, 3 μg/mL, Day 40",6312
same,"Mean, ATP proliferation assay","T-cell line 165-C4G, 10 μg/mL, Day 40",19169
same,"Mean, ATP proliferation assay","T-cell line 165-C5G, 1 μg/mL, Day 40",12236
same,"Proliferation (luminescent ATP assay), Mean","T-cell line 165-C5G, 1.25 μg/mL antigen, autologous B-LCL",2511 RLU
same,"Proliferation (luminescent ATP assay), Mean","T-cell line 165-C5G, 2.5 μg/mL antigen, autologous B-LCL",26253 RLU
same,"Mean, ATP proliferation assay","T-cell line 165-C5G, 3 μg/mL, Day 40",36288
same,"Proliferation (luminescent ATP assay), Mean","T-cell line 165-C5G, 5 μg/mL antigen, autologous B-LCL",67559 RLU
same,"Proliferation (luminescent ATP assay), Mean","T-cell line 165-C5G, 10 μg/mL antigen, autologous B-LCL",74630 RLU
same,"Mean, ATP proliferation assay","T-cell line 165-C5G, 10 μg/mL, Day 40",45444
same,"Mean, ATP proliferation assay","T-cell line 165-C8G, 1 μg/mL, tested with the Donor 3 COP lines of Table 25",5605 RLU
same,"Mean, ATP proliferation assay","T-cell line 165-C8G, 3 μg/mL, tested with the Donor 3 COP lines of Table 25",5002 RLU
same,"Mean, ATP proliferation assay","T-cell line 165-C8G, 10 μg/mL, tested with the Donor 3 COP lines of Table 25",30200 RLU
same,"Mean, ATP proliferation assay","T-cell line 165-D8G, 1 μg/mL, Day 40",9427
same,"Mean, ATP proliferation assay","T-cell line 165-D8G, 3 μg/mL, Day 40",12644
same,"Mean, ATP proliferation assay","T-cell line 165-D8G, 10 μg/mL, Day 40",31264
same,"Mean, ATP proliferation assay","T-cell line 165-E7G, 1 μg/mL, Day 40",2569
same,"Proliferation (luminescent ATP assay), Mean","T-cell line 165-E7G, 1.25 μg/mL antigen, autologous B-LCL, Day 55",8875 RLU
same,"Proliferation (luminescent ATP assay), Mean","T-cell line 165-E7G, 2.5 μg/mL antigen, autologous B-LCL, Day 55",10248 RLU
same,"Mean, ATP proliferation assay","T-cell line 165-E7G, 3 μg/mL, Day 40",6610
same,"Proliferation (luminescent ATP assay), Mean","T-cell line 165-E7G, 5 μg/mL antigen, autologous B-LCL, Day 55",26934 RLU
same,"Proliferation (luminescent ATP assay), Mean","T-cell line 165-E7G, 10 μg/mL antigen, autologous B-LCL, Day 55",30721 RLU
same,"Mean, ATP proliferation assay","T-cell line 165-E7G, 10 μg/mL, Day 40",14279
same,"Proliferation (luminescent ATP assay), Mean","T-cell line 165-E9G, 1 μg/mL antigen, Day 50 of culturing, No Antigen Value 1742",1889 RLU
same,"Mean, ATP proliferation assay","T-cell line 165-E9G, 1 μg/mL, Day 40",2961
same,"Proliferation (luminescent ATP assay), Mean","T-cell line 165-E9G, 1.25 μg/mL antigen, autologous B-LCL",253 RLU
same,"Proliferation (luminescent ATP assay), Mean","T-cell line 165-E9G, 2.5 μg/mL antigen, autologous B-LCL",1647 RLU
same,"Proliferation (luminescent ATP assay), Mean","T-cell line 165-E9G, 3 μg/mL antigen, Day 50 of culturing, No Antigen Value 1742",5974 RLU
same,"Mean, ATP proliferation assay","T-cell line 165-E9G, 3 μg/mL, Day 40",7837
same,"Proliferation (luminescent ATP assay), Mean","T-cell line 165-E9G, 5 μg/mL antigen, autologous B-LCL",12964 RLU
same,"Proliferation (luminescent ATP assay), Mean","T-cell line 165-E9G, 10 μg/mL antigen, autologous B-LCL",13809 RLU
same,"Mean, ATP proliferation assay","T-cell line 165-E9G, 10 μg/mL, Day 40",24935
same,"Proliferation (luminescent ATP assay), Mean","T-cell line 165-E9G, 30 μg/mL antigen, Day 50 of culturing, No Antigen Value 1742",39472 RLU
same,"Proliferation (luminescent ATP assay), Mean","T-cell line 165-E9G, 10 μpg/mL antigen, Day 50 of culturing, No Antigen Value 1742",37352 RLU
same,"Mean, ATP proliferation assay","T-cell line 165-F2G, 1 μg/mL, Day 40",1753
same,"Mean, ATP proliferation assay","T-cell line 165-F2G, 3 μg/mL, Day 40",1422
same,"Mean, ATP proliferation assay","T-cell line 165-F2G, 10 μg/mL, Day 40",1502
same,"Mean, ATP proliferation assay","T-cell line 165-F5G, 1 μg/mL, Day 40",5669
same,"Proliferation (luminescent ATP assay), Mean","T-cell line 165-F5G, 1.25 μg/mL antigen, autologous B-LCL",1071 RLU
same,"Proliferation (luminescent ATP assay), Mean","T-cell line 165-F5G, 2.5 μg/mL antigen, autologous B-LCL",19012 RLU
same,"Mean, ATP proliferation assay","T-cell line 165-F5G, 3 μg/mL, Day 40",14024
same,"Proliferation (luminescent ATP assay), Mean","T-cell line 165-F5G, 5 μg/mL antigen, autologous B-LCL",45384 RLU
same,"Proliferation (luminescent ATP assay), Mean","T-cell line 165-F5G, 10 μg/mL antigen, autologous B-LCL",48029 RLU
same,"Mean, ATP proliferation assay","T-cell line 165-F5G, 10 μg/mL, Day 40",23774
same,"Mean, ATP proliferation assay","T-cell line 165-F8G, 1 μg/mL, Day 40",4804
same,"Mean, ATP proliferation assay","T-cell line 165-F8G, 3 μg/mL, Day 40",6841
same,"Mean, ATP proliferation assay","T-cell line 165-F8G, 10 μg/mL, Day 40",11880
same,"Proliferation (luminescent ATP assay), Mean","T-cell line 165-F10G, 1 μg/mL antigen, Day 50 of culturing, No Antigen Value 3752",4734 RLU
same,"Mean, ATP proliferation assay","T-cell line 165-F10G, 1 μg/mL, Day 40",6015
same,"Proliferation (luminescent ATP assay), Mean","T-cell line 165-F10G, 1.25 μg/mL antigen, autologous B-LCL",5731 RLU
same,"Proliferation (luminescent ATP assay), Mean","T-cell line 165-F10G, 2.5 μg/mL antigen, autologous B-LCL",38905 RLU
same,"Proliferation (luminescent ATP assay), Mean","T-cell line 165-F10G, 3 μg/mL antigen, Day 50 of culturing, No Antigen Value 3752",35371 RLU
same,"Mean, ATP proliferation assay","T-cell line 165-F10G, 3 μg/mL, Day 40",17900
same,"Proliferation (luminescent ATP assay), Mean","T-cell line 165-F10G, 5 μg/mL antigen, autologous B-LCL",66355 RLU
same,"Proliferation (luminescent ATP assay), Mean","T-cell line 165-F10G, 10 μg/mL antigen, Day 50 of culturing, No Antigen Value 3752",58913 RLU
same,"Proliferation (luminescent ATP assay), Mean","T-cell line 165-F10G, 10 μg/mL antigen, autologous B-LCL",57329 RLU
same,"Mean, ATP proliferation assay","T-cell line 165-F10G, 10 μg/mL, Day 40",30198
same,"Proliferation (luminescent ATP assay), Mean","T-cell line 165-F10G, 30 μg/mL antigen, Day 50 of culturing, No Antigen Value 3752",59173 RLU
same,"Proliferation (luminescent ATP assay), Mean","T-cell line 165-H11G, 1 μg/mL antigen, Day 50 of culturing, No Antigen Value 1485",9569 RLU
same,"Mean, ATP proliferation assay","T-cell line 165-H11G, 1 μg/mL, Day 40",10205
same,"Proliferation (luminescent ATP assay), Mean","T-cell line 165-H11G, 1.25 μg/mL antigen, autologous B-LCL",8 RLU
